Bounds are passed on as bounds.

For experiment [1], the system named is T-cell. Nature of the experiment: CD25 cell surface staining on T-cells co-stimulated with anti-CD3 and anti-CD28 antibody (Biological Example 2). Type of experiment: cell-based, human. To be noted: Homo sapiens, T-cell, read-out: CD25 staining Anti-CD3/Anti-CD28 stimulation; for fold induction at 0.3 µM: 0.3 μM Cbl-b inhibitor; for fold induction at 1 µM: 1 μM Cbl-b inhibitor; for fold induction at 4 µM: 4 μM Cbl-b inhibitor. Summed up:
(§1)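 T-cells were stimulated with anti-CD3 antibody alone or with anti-CD28 antibody, in the presence or absence of Cbl-b inhibitor. IL-2 secretion or CD25 surface staining was measured, and values expressed as fold over the uninhibited baseline […].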

The test system of experiment [2] is T-cell. The experiment can be described thus: CD25 cell surface staining on T-cells stimulated with anti-CD3 antibody alone (Biological Example 2). It counts as cell-based, human. To be noted: T-cell, read-out: CD25 staining Anti-CD3 stimulation; for fold induction at 1 µM: 1 μM Cbl-b inhibitor; for fold induction at 8 µM: 8 μM Cbl-b inhibitor.
Experiment [3] deals with T-cell. Nature of the experiment: IL-2 secretion from T-cells co-stimulated with anti-CD3 and anti-CD28 antibody (Biological Example 2). Type of experiment: cell-based, human. To be noted: Homo sapiens, T-cell, read-out: IL-2 secretion Anti-CD3/Anti-CD28 stimulation; for fold induction at 0.3 µM: 0.3 μM Cbl-b inhibitor; for fold induction at 1 µM: 1 μM Cbl-b inhibitor; for fold induction at 4 µM: 4 μM Cbl-b inhibitor. In short, it runs like this:
as §1

The next experiment has as its target Cbl-b (Homo sapiens, UniProt Q13191). Nature of the experiment: Cbl-b activity assay (Cbl-b inhibition assay), TR-FRET of Cbl-b interaction with UbcH5B-Ub. Type of experiment: biochemical. To be noted: assay buffer with 100 mM NaCl, 60 nM Src kinase; read-out: Cbl-b activity IC50. Summed up:
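UbcH5B (C85K) conjugated to N-terminally Bodipy-Fluorescein-labeled ubiquitin served as the fluorescent partner. After compound preincubation, Src kinase (60 nM) with 1 mM ATP and 5 mM MgCl2 (final) was added for 1.5 h, followed by a further 1 h incubation. Some values were obtained with 50 mM NaCl and 30 nM Src.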
On the technique in general: Time-resolved FRET reads energy transfer from a long-lived donor to a nearby acceptor.

[4] abbreviates: fold change over baseline, primary human total T-cells.
Where [5] appears, read: fold change over baseline (anti-CD3/anti-CD28 stimulated T-cells without inhibitor).

Cbl-b, sequence (Q13191 36-427): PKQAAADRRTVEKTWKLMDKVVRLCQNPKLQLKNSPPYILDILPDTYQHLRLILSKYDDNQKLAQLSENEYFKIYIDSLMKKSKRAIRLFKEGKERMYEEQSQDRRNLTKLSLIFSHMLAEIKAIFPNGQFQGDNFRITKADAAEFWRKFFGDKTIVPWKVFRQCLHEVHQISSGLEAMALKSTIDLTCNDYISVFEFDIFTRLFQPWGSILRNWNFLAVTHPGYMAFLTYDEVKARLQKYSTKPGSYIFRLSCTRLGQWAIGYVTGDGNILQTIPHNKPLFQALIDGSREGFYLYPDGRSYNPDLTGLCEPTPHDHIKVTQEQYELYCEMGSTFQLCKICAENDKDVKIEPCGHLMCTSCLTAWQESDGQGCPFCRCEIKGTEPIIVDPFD

Turning to `C[C@H](Cc1nncn1C)c1cccc(NC(=O)c2cc(O[C@@H]3CC[C@@H](O)C3)ccn2)c1` (relative stereo) [Compound 205, trans-4-(3-hydroxycyclopentyloxy)-N-(3-((R)-1-(4-methyl-4H-1,2,4-triazol-3-yl)propan-2-yl)phenyl)picolinamide], in the experiment with T-cell [1] (setting [4]), the fold induction at 0.3 µM lay within 1.01 to 1.3, the fold induction at 1 µM lay in the range of 1.01 to 1.3 and the fold induction at 4 µM lay in the range of 1.31 to 1.5. Further, in the experiment with T-cell [2] (setting [4]), the fold induction at 1 µM lay in the range of 0.801 to 1 and the fold induction at 8 µM is greater than 1. Also, in the experiment with T-cell [3] (setting [4]), the fold induction at 0.3 µM lay within 2.51 to 5, the fold induction at 1 µM is 2.51 to 5 and the fold induction at 4 µM is 5 to 7.5. Further, the concentration for half-maximal inhibition (IC50) (commonly the midpoint of a concentration-inhibition curve) at Cbl-b is less than 100 nM.

As for `C[C@H](c1cc2c(c(C(F)(F)F)c1)CN(c1cccc(C3([C@H](F)c4nncn4C)COC3)c1)C2=O)N1CCC2(CC2)C1` (stereo in doubt) [Example 575, 6-((R)-1-(5-Azaspiro[2.4]heptan-5-yl)ethyl)-2-(3-(3-((S)-fluoro(4-methyl-4H-1,2,4-triazol-3-yl)methyl)oxetan-3-yl)phenyl)-4-(trifluoromethyl)isoindolin-1-one], the figures for the fold induction at 0.3 µM in the experiment on T-cell [1] (setting [5]) and with T-cell [3] (setting [5]) were 1.31 to 1.5 and greater than 7.5, respectively. The fold induction at 1 µM is 1.31 to 1.5 in the experiment with T-cell [1] (setting [5]); greater than 1 in the experiment on T-cell [2] (Homo sapiens, fold change over baseline (anti-CD3/anti-CD28 stimulated T-cells without inhibitor)); greater than 7.5 with T-cell [3] (setting [5]). Besides, the IC50 at Cbl-b was less than 100 nM.

Regarding `Cc1ccc(C(=O)Nc2cccc([C@H](C)Sc3nncn3C)c2)nc1C1CC1` [Compound 54, (S)-6-cyclopropyl-5-methyl-N-(3-(1-((4-methyl-4H-1,2,4-triazol-3-yl)thio)ethyl)phenyl)picolinamide], in the experiment with T-cell [1] (setting [4]), the fold induction at 0.3 µM was 1.01 to 1.3, the fold induction at 1 µM is 1.01 to 1.3 and the fold induction at 4 µM lay in the range of 1.01 to 1.3. Further, in the experiment on T-cell [2] (setting [4]), the fold induction at 1 µM was in the range of 0.601 to 0.8 and the fold induction at 8 µM fell in the range of 0.801 to 1. Further, in the experiment with T-cell [3] (setting [4]), the fold induction at 0.3 µM lay within 1.01 to 2.5, the fold induction at 1 µM was in the range of 2.51 to 5 and the fold induction at 4 µM was greater than 7.5. Besides, the IC50 on Cbl-b was less than 100 nM.

Regarding `Cc1cc(C(=O)Nc2cccc([C@H](C)Sc3nncn3C)c2)nc(C(F)(F)F)c1` [Compound 65, (S)-4-methyl-N-(3-(1-((4-methyl-4H-1,2,4-triazol-3-yl)thio)ethyl)phenyl)-6-(trifluoromethyl)picolinamide], in the experiment with T-cell [1] (setting [4]), the fold induction at 0.3 µM was 1.01 to 1.3, the fold induction at 1 µM was in the range of 1.01 to 1.3 and the fold induction at 4 µM lay within 1.01 to 1.3. For the same compound, in the experiment with T-cell [2] (setting [4]), the fold induction at 1 µM fell in the range of 0.601 to 0.8 and the fold induction at 8 µM was greater than 1. Also, in the experiment on T-cell [3] (setting [4]), the fold induction at 0.3 µM was 1.01 to 2.5, the fold induction at 1 µM was in the range of 1.01 to 2.5 and the fold induction at 4 µM was in the range of 2.51 to 5. The IC50 at Cbl-b is less than 100 nM.

As to `C[C@H](Sc1nncn1C)c1cccc(NC(=O)c2cc(C3CC3)cc(C(F)(F)F)n2)c1` [Compound 67, (S)-4-cyclopropyl-N-(3-(1-((4-methyl-4H-1,2,4-triazol-3-yl)thio)ethyl)phenyl)-6-(trifluoromethyl)picolinamide], in the experiment with T-cell [1] (setting [4]), the fold induction at 0.3 µM is 1.01 to 1.3, the fold induction at 1 µM was 1.01 to 1.3 and the fold induction at 4 µM lay in the range of 1.01 to 1.3. Further, in the experiment with T-cell [2] (setting [4]), the fold induction at 1 µM is 0.801 to 1 and the fold induction at 8 µM was greater than 1. For the same compound, in the experiment on T-cell [3] (setting [4]), the fold induction at 0.3 µM lay in the range of 1.01 to 2.5, the fold induction at 1 µM is 1.01 to 2.5 and the fold induction at 4 µM was in the range of 2.51 to 5. In addition, the IC50 on Cbl-b was less than 100 nM.

Consider `C[C@H](Sc1nncn1C)c1cccc(NC(=O)c2cccc(C3CC3)n2)c1` [Compound 72, (S)-6-cyclopropyl-N-(3-(1-((4-methyl-4H-1,2,4-triazol-3-yl)thio)ethyl)phenyl)picolinamide], for which, in the experiment with T-cell [1] (setting [4]), the fold induction at 0.3 µM was 1.31 to 1.5, the fold induction at 1 µM lay in the range of 1.51 to 1.75 and the fold induction at 4 µM is 1.51 to 1.75. In the experiment on T-cell [2] (setting [4]), the fold induction at 1 µM is less than 0.6 and the fold induction at 8 µM was 0.801 to 1. Also, in the experiment on T-cell [3] (setting [4]), the fold induction at 0.3 µM was 1.01 to 2.5, the fold induction at 1 µM was in the range of 2.51 to 5 and the fold induction at 4 µM lay in the range of 2.51 to 5. Further, the IC50 on Cbl-b is less than 100 nM.

In the case of `C[C@H](Sc1nncn1C)c1cccc(NC(=O)c2ccnc(C3CC3)n2)c1` [Compound 76, 2-cyclopropyl-A-[3-[(1S)-1-[(4-methyl-1,2,4-triazol-3-yl)sulfanyl]ethyl]phenyl]pyrimidine-4-carboxamide], in the experiment with T-cell [1] (setting [4]), the fold induction at 0.3 µM was in the range of 1.01 to 1.3, the fold induction at 1 µM lay within 1.01 to 1.3 and the fold induction at 4 µM was 1.31 to 1.5. In the experiment on T-cell [2] (setting [4]), the fold induction at 1 µM is 0.601 to 0.8 and the fold induction at 8 µM is greater than 1. Moreover, in the experiment on T-cell [3] (setting [4]), the fold induction at 0.3 µM is less than 1, the fold induction at 1 µM is 2.51 to 5 and the fold induction at 4 µM lay within 5 to 7.5. Further, the IC50 at Cbl-b was less than 100 nM.

`C[C@H](Sc1nncn1C)c1cccc(NC(=O)c2ccc(CO)c(C3CC3)n2)c1` [Compound 89, 6-cyclopropyl-5-(hydroxymethyl)-N-[3-[(1S)-1-[(4-methyl-1,2,4-triazol-3-yl)sulfanyl]ethyl]phenyl]pyridine-2-carboxamide]: in the experiment with T-cell [1] (setting [4]), the fold induction at 0.3 µM lay in the range of 1.01 to 1.3, the fold induction at 1 µM fell in the range of 1.01 to 1.3 and the fold induction at 4 µM is 1.31 to 1.5. Further, in the experiment with T-cell [2] (setting [4]), the fold induction at 1 µM is less than 0.6 and the fold induction at 8 µM lay within 0.801 to 1. Besides, in the experiment with T-cell [3] (setting [4]), the fold induction at 0.3 µM lay within 1.01 to 2.5, the fold induction at 1 µM fell in the range of 2.51 to 5 and the fold induction at 4 µM is 5 to 7.5. For the same compound, the IC50 at Cbl-b was less than 100 nM.

For `C[C@H](Sc1nncn1C)c1cccc(NC(=O)c2ccc(F)c(C3CC3)n2)c1` [Compound 91, 6-Cyclopropyl-5-fluoro-N-[3-[(1S)-1-[(4-methyl-1,2,4-triazol-3-yl)sulfanyl]ethyl]phenyl]pyridine-2-carboxamide], in the experiment with T-cell [1] (setting [4]), the fold induction at 0.3 µM was less than 1, the fold induction at 1 µM was less than 1 and the fold induction at 4 µM fell in the range of 1.01 to 1.3. Besides, in the experiment on T-cell [2] (setting [4]), the fold induction at 1 µM is 0.601 to 0.8 and the fold induction at 8 µM is greater than 1. Also, in the experiment on T-cell [3] (setting [4]), the fold induction at 0.3 µM lay in the range of 1.01 to 2.5, the fold induction at 1 µM was 2.51 to 5 and the fold induction at 4 µM was greater than 7.5. Further, the half-maximal inhibitory concentration (IC50) at Cbl-b was less than 100 nM.

Take `C[C@H](Sc1nncn1C)c1cccc(NC(=O)c2ccc(C#N)c(C3CC3)n2)c1` [Compound 92, 5-cyano-6-cyclopropyl-N-[3-[(1S)-1-[(4-methyl-1,2,4-triazol-3-yl)sulfanyl]ethyl]phenyl]pyridine-2-carboxamide]: in the experiment with T-cell [1] (setting [4]), the fold induction at 0.3 µM lay in the range of 1.01 to 1.3, the fold induction at 1 µM lay in the range of 1.31 to 1.5 and the fold induction at 4 µM is 1.31 to 1.5. In the experiment with T-cell [2] (setting [4]), the fold induction at 1 µM is 0.601 to 0.8 and the fold induction at 8 µM is greater than 1. Also, in the experiment with T-cell [3] (setting [4]), the fold induction at 0.3 µM is 1.01 to 2.5, the fold induction at 1 µM is 2.51 to 5 and the fold induction at 4 µM fell in the range of 5 to 7.5. Moreover, the IC50 at Cbl-b was less than 100 nM.

`COc1ccc(C(=O)Nc2cccc([C@H](C)Sc3nncn3C)c2)nc1C1CC1` [Compound 93, 6-cyclopropyl-5-methoxy-N-[3-[(1S)-1-[(4-methyl-1,2,4-triazol-3-yl)sulfanyl]ethyl]phenyl]pyridine-2-carboxamide]: in the experiment with T-cell [1] (setting [4]), the fold induction at 0.3 µM was 1.01 to 1.3, the fold induction at 1 µM lay in the range of 1.01 to 1.3 and the fold induction at 4 µM is 1.01 to 1.3. In the experiment on T-cell [2] (setting [4]), the fold induction at 1 µM fell in the range of 0.601 to 0.8 and the fold induction at 8 µM was greater than 1. Also, in the experiment with T-cell [3] (setting [4]), the fold induction at 0.3 µM was in the range of 1.01 to 2.5, the fold induction at 1 µM fell in the range of 1.01 to 2.5 and the fold induction at 4 µM was 2.51 to 5. Moreover, the IC50 at Cbl-b was less than 100 nM.

Regarding `C[C@H](Cc1nncn1C)c1cccc(NC(=O)c2cccc(C(F)(F)F)n2)c1` [Compound 183a, (R)-N-(3-(1-(4-methyl-4H-1,2,4-triazol-3-yl)propan-2-yl)phenyl)-6-(trifluoromethyl)picolinamide], in the experiment with T-cell [1] (setting [4]), the fold induction at 0.3 µM was greater than 1.76, the fold induction at 1 µM was greater than 1.76 and the fold induction at 4 µM was greater than 1.76. Besides, in the experiment with T-cell [2] (setting [4]), the fold induction at 1 µM is greater than 1 and the fold induction at 8 µM is greater than 1. In addition, in the experiment with T-cell [3] (setting [4]), the fold induction at 0.3 µM is 2.51 to 5, the fold induction at 1 µM fell in the range of 5 to 7.5 and the fold induction at 4 µM is greater than 7.5. In addition, the IC50 on Cbl-b is less than 100 nM.

Source of the values: US20220324835A1 (Nurix Therapeutics, Inc., priority 2018, published 2022).
